The series concerns Balb/c 3T3 mouse fibroblasts. Kind of series: 3T3 in vitro phototoxicity assay (Neutral Red uptake). Format: cell-based. The following applies: for Phototoxicity factor: IC50 without vs with UV-A exposure, cut-off factor >5; for IC50: Mus musculus, BALB/c3T3, light or radiation study, 3T3 fibroblasts, approx. 5 J/cm^2 UVA, Neutral Red uptake. From the text:
Phototoxicity is defined as a toxic response that is elicited after the first exposure of the skin to certain chemicals and subsequent exposure to light, or that is induced similarly by skin irradiation after systemic administration of a chemical substance. The assay used in this study is designed to detect the phototoxic potential of a chemical by using a simple in vitro cytotoxicity assay with Balb/c 3T3 mouse fibroblasts. The principle of this test is a comparison of the cytotoxicity of a chemical when tested with and without exposure to a non-toxic dose of UVA-light. Cytotoxicity is expressed as a dose dependent reduction of the growth rate of cells as determined by uptake of the vital dye Neutral Red one day after treatment.
A small amount of substance was weighed and formulated freshly in DMSO just before the start of the exposure of the cells. This stock solution or appropriate dilutions with DMSO were added to the cell suspensions to obtain the required final concentrations. All solutions were generally prepared in Eppendorf caps and discarded after use.
• Chlorpromazine (HCL) (Sigma, Batch/Lot No.: 120M1328V), test concentration: 300 μg/mL, Solvent: PBS/3% DMSO
For this study the Neutral Red uptake (NRU) assay of Borenfreund and Puerner (Borenfreund, E, Puerner J A. Toxicity determined in vitro by morphological alterations and Neutral Red absorption. Toxicology Lett. 1985; 24:119-124) modified according to INVITTOX protocol No 78 (ERGATT/FRAME data bank of in vitro techniques in toxicology. INVITTOX PROTOCOL No 78. 3T3 NRU Phototoxicity Assay. March 1994) has been adapted to examine a possible phototoxic potential of the test item. This assay is based on the active uptake of the Neutral Red dye into the lysosomes of cultured murine fibroblasts. Because lysosomal membranes are known to be a site of action of many phototoxic compounds, this assay can provide a measure of potential for phototoxic injury.
A murine fibroblasts clone A 31 (ATCC no. CCL 163—passage No. 108) were cultured in 175 cm^2 tissue culture grade flasks, containing sDMEM (Dulbecco's […] Essential Medium, supplemented with 10% fetal calf serum, 2 mM L-glutamine, 100 units/ml Penicillin and 100 μg/ml streptomycin) at 37° C. in a humidified atmosphere of 6% CO2. Before cells approach confluence they were removed from flasks by trypsinisation. Prior to use in an assay, the cells were transferred to 96-well microtiter plates at a concentration of 1×10^4 cells/well in 100 μl volumes of sDMEM and allowed to attach for 24 h.
For incubation with murine fibroblasts, the test item was diluted in PBS/3% DMSO (detailed concentrations see in results).
Culture medium (Dulbecco's Modified Eagle Medium(DMEM), GlutaMAX (Gibco Ref 21885-025), 10% Fetal Bovine Serum (FBS) (Gibco Ref 10270-106), 1001U/ml Penicillin and 100 μg/mL Streptomycin (Gibco Ref 15140-122)) was removed from the wells and murine fibroblasts were washed with PBS. Afterwards 100 μL of PBS/3% DMSO containing the test item was added and target cells were incubated for 1 h at 37° C. with 6% CO2.
For each test item the microtiter plates were prepared according to Table 6. “UVA plates” were exposed to approx. 5 J/cm^2 UVA light, the “Dark plates” were kept in the dark and served as cytotoxicity control. Plates with chlorpromazine hydrochloride served as positive control. UV flux was measured with a UV-meter (Dr. Gröbel RM21).
Following UV irradiation, the test item was removed from the wells (one washing step with PBS) and replaced with sDMEM. Target cells were then incubated overnight at 37° C. in 6% CO2.
Each plate contained wells with cells and solvent but without test item which were either not incubated with Neutral Red solution (0% standard—S1) or were stained with Neutral Red (100% standard—S2) for calculation of the standard cell viability curve. Wells labeled with U01-U08 contained the different test item concentrations. […]

Bounds are passed on as bounds.

Usually IC50 stands for the concentration that inhibits the measured activity by half. A higher IC50 goes with weaker potency. As to `Cn1ncc2c(N3CCc4cc(N5CCNCC5)ccc4C3)ccnc21` [Example 3, 2-(1-methylpyrazolo[3,4-b]pyridin-4-yl)-6-piperazin-1-yl-3,4-dihydro-1H-isoquinoline], the Phototoxicity factor is 1 and the IC50 was over 100 µg/mL.
In turn, `CO[C@@H]1CN(c2ccc3c(c2)[C@@H](C)CN(c2ccnc4c2cnn4C)C3)C[C@H]1N` [Example 20, (3R,4R)-4-methoxy-1-[(4R)-4-methyl-2-(1-methylpyrazolo[3,4-b]pyridin-4-yl)-3,4-dihydro-1H-isoquinolin-6-yl]pyrrolidin-3-amine] yielded a Phototoxicity factor of 1 and an IC50 of over 100 µg/mL.
As to `CO[C@@H]1CN(c2ccc3c(n2)[C@@H](C)CN(c2cc(C)nc4c2cnn4C)C3)C[C@H]1N` [Example 63, (3R,4R)-4-methoxy-1-[(8S)-6-(1,6-dimethylpyrazolo[3,4-b]pyridin-4-yl)-8-methyl-7,8-dihydro-5H-1,6-naphthyridin-2-yl]pyrrolidin-3-amine], the Phototoxicity factor was 1 and the IC50 was over 100 µg/mL.
